Assay results from US20210163357A1, “Composition comprising at least one microorganism and use thereof” (Evonik Operations GmbH, priority 2018, published 2021).

Assays:
Type in all cases: cell-based
[1] = test system: Bacillus subtilis DSM 32315; assay: Compatibility of spores with additives on agar plates; conditions: neopentyl glycol 7 g/L, Protectosil WS405 20 g/L
Procedure: For spores of the strain Bacillus subtilis DSM 32315 compatibility with neopentyl glycol (7 g/L) and Protectosil® WS405 (20 g/L) was investigated on agar plates. A mixture of 3 g of meat extract, 5 g of peptone from casein and 1000 mL of distilled water adjusted to pH 7 using HCl/NaOH was used as medium.

[2] = test system: Bacillus subtilis (DSM 10); assay: Compatibility of microorganisms with hydrophobizing agent and shrinkage reducer, liquid culture, turbidity; conditions: WS405 5, 20 or 30 g/L; neopentyl glycol 0.7, 7 or 14 g/L; 4 days, 30° C.
Procedure: (§1) The strains Bacillus subtilis (DSM 10) and Bacillus pseudofirmus (DSM 8715) were investigated for compatibility with hydrophobizing agents and shrinkage reducers.
(§2) A mixture of 3 g of meat extract, 5 g of peptone from casein and 1000 mL of distilled water adjusted to pH 7 using HCl/NaOH for Bacillus subtilis (DSM 10) and adjusted to pH 7 using Na sesquicarbonate for Bacillus pseudofirmus (DSM 8715) was used as the medium.
(§3) A pre-culture was initially produced for each of the two strains: To this end, an inoculation dose of the spores was in each case placed into a culture tube with 8 mL of the respective medium and left overnight in a laboratory shaker at 30° C. and 200 revolutions per minute. Furthermore, aqueous stock solutions respectively having a concentration of Protectosil® WS405 (hydrophobizing agent) of 500 g/L and a concentration of neopentyl glycol (shrinkage reducer) of 280 g/L were produced.
(§4) For the main cultures two 6-well spot plates were each filled with 8 mL of medium. Then, 10 μL of the first pre-culture were added to each well of the first plate and 10 μL of the second pre-culture were added to each well of the second plate. […]

[3] = test system: Bacillus pseudofirmus (DSM 8715); assay: as above; conditions: WS405 5, 20 or 30 g/L; neopentyl glycol 0.7, 7 or 14 g/L; 4 days, 30° C.
Procedure: as §1, §2, §3, §4

## CC(C)(CO)CO [neopentyl glycol]
[1]
  formation of colonies in presence of additive: Formation of colonies was observed in all cases
[2]
  growth of microorganism in presence of additive (turbidity): growth of neither organism was impaired
[3]
  growth of microorganism in presence of additive (turbidity): growth of neither organism was impaired
